US7888369B2, “Oxazoloisoquinoline derivatives as thrombin receptor antagonists” (Schering Corporation, priority 2005, dated 2011)
Values belong to the compound of their own block, whether it stands above or below them.

Molecular target: T1, thrombin receptor (Homo sapiens, UniProt P25116)
T1 construct: tissue North Jersey Blood Center (East Orange, N.J.); host or cells: platelet membranes prepared from platelet concentrates
T1 sequence (P25116 22-425): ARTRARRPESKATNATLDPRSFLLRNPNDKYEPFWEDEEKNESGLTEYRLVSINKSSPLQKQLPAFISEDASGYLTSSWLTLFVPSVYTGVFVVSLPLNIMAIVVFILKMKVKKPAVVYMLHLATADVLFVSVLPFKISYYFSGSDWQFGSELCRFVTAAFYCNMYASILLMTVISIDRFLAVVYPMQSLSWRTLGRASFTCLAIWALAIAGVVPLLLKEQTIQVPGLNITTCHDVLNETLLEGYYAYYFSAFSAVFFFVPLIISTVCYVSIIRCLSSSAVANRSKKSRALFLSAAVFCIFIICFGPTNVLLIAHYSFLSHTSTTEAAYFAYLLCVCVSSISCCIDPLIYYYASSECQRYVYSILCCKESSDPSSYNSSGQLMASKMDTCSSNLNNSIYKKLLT
Assay: High throughput thrombin receptor radioligand binding assay ([3H]haTRAP, platelet membranes)
Experimental: In Vitro Testing Procedure for Thrombin Receptor Antagonists:
Preparation of [^3H]ha TRAP
A(pF-F)R(ChA)(hR)(I2—Y)—NH2 (1.03 mg) and 10% Pd/C (5.07 mg) were suspended in DMF (250 μl) and diisopropylethylamine (10 μl). The vessel was attached to the tritium line, frozen in liquid nitrogen and evacuated. Tritium gas (342 mCi) was then added to the flask, which was stirred at room temperature for 2 hours. At the completion of the reaction, the excess tritium was removed and the reacted peptide solution was diluted with DMF (0.5 ml) and filtered to remove the catalyst. The collected DMF solution of the crude peptide was diluted with water and freeze dried to remove the labile tritium. The solid peptide was redissolved in water and the freeze drying process repeated. The tritiated peptide ([^3H]haTRAP) was dissolved in 0.5 ml of 0.1% aqueous TFA and purified by HPLC using the following conditions: column, Vydac™ C18, 25 cm×9.4 mm I.D.; mobile phase, (A) 0.1% TFA in water, (B) 0.1% TFA in CH3CN; gradient, (A/B) from 100/0 to 40/60 over 30 min; flow rate, 5 ml/min; detection, UV at 215 nm. The radiochemical purity of [^3H]haTRAP was 99% as analyzed by HPLC. A batch of 14.9 mCi at a specific activity of 18.4 Ci/mmol was obtained.
Preparation of Platelet Membranes
Platelet membranes were prepared using a modification of the method of Natarajan et al. (Natarajan et al, Int. J. Peptide Protein Res. 45:145-151 (1995)) from 20 units of platelet concentrates obtained from the North Jersey Blood Center (East Orange, N.J.) within 48 hours of collection. All steps were carried out at 4° C. under approved biohazard safety conditions. Platelets were centrifuged at 100×g for 20 minutes at 4° C. to remove red cells. The supernatants were decanted and centrifuged at 3000×g for 15 minutes to pellet platelets. Platelets were re-suspended in 10 mM Tris-HCl, pH 7.5, 150 mM NaCl, 5 mM EDTA, to a total volume of 200 ml and centrifuged at 4400×g for 10 minutes. This step was repeated two additional times. […] Protein concentration was determined by a Lowry assay (Lowry et al., J. Biol. Chem., 193:265-275 (1951)). […]

- inhibition at 1 µM (at 1 μM, read-out: Thrombin Receptor Antagonist Activity: % inhibition): 27%
Structure (SMILES): O=C1OC[C@@H]2C(/C=C/c3ccc(-c4cccc(F)c4)cn3)c3ccccc3CN12 (single isomer, unassigned) [Compound 12, 10-{2-[5-(3-Fluoro-phenyl)-pyridin-2-yl]-vinyl}-1,5,10,10a-tetrahydro-oxazolo[3,4-b]isoquinolin-3-one]

- Thrombin Receptor Antagonist Activity: % inhibition (at 1 μM): 15%
Structure (SMILES): O=C1OC[C@@H]2C(/C=C/c3ccc(-c4cccc(F)c4)cn3)c3ccccc3CN12 (single isomer, unassigned) [Compound 13, 10-{2-[5-(3-Fluoro-phenyl)-pyridin-2-yl]-vinyl}-1,5,10,10a-tetrahydro-oxazolo[3,4-b]isoquinolin-3-one]

- Ki: 12 nM
Structure (SMILES): O=C1OC[C@@H]2C(/C=C/c3ccc(-c4cccc(F)c4)cn3)C3CCCCC3CN12 (stereo partly drawn) [Compound 16]
